Several values for one entry are separate records, joined by “and”; a condition that tells them apart may be missing. Equal values may be shown once.
Tests used:
eye [1] = test: Efficacy and comfort of various nonionic surfactants (Example 15, Table 10); parameters: species or system human; conditions: in vivo
Excerpt: Duration was excellent for each nonionic surfactant tested.

eye [2] = test: Clinical observations stated in the description (miosis, duration, blur, redness, anterior chamber); type: in vivo, human
eye [3] = conditions: cited from earlier work
presbyopic subjects = test: Effect of aceclidine on vision of presbyopic subjects aged 47 to 67 years (Example 1); type: in vivo, human; conditions: for Effect: duration of effect; for L Post Dist: left eye distance vision; for L Post Dist / L Post Near / R Post Dist / R Post Near: Post Gtt 15″; for R Post Dist: right eye distance vision
Protocol: As aceclidine is an […], the clinical effectiveness may vary with different ratios. For the present studies a nearly exact 50:50 ratio of stereoisomers was measured as best determined by polarimetry.
After administration of the composition all subjects experienced an improvement in their near vision that lasted from 7 to 12 hours.

eye [4] = test: Effect of concentration of aceclidine, brimonidine, guanfacine, fadolmidine, tropicamide and additives (Example 3); type: in vivo, human
Protocol: All percentages are w/v. Scores for nasal congestion, stinging initial, stinging, 3 min, redness initial, redness 15 min, whitening, pain and overall are out of 4.
“pt” reflects size of print materials, 4 being equivalent to 20/20 vision and 3 to 20/15 vision.
Baseline vision was 20.20 both eyes for distance; 20.70 right eye unaided for near; 20.80 left eye for near (best @ 16″).
D/C stands for discontinued after eye washing due to intolerable stinging.
All baseline vision data was based on vision corrected with distance contact lenses. Near vision was noted by subject as outstanding from 8 to 10 inches to the horizon at 30 minutes after installation for AB4T and AB6T.
AB4T and AB6T were repeated both monocularly and binocularly. Substantial improvement in depth perception, near point acuity to 3 pt (20.15), and near point distance (8″, 20.20) was noted when both eyes were treated vs. monocular treatment.

[5] = Stability of aceclidine at 25° C. and 4° C. by HPLC (Example 10); type: physicochemical
Protocol: 20 samples of the above composition were divided evenly and stored at 25° C. and 4° C. Prior to storage, initial concentrations of aceclidine were measured using […] (“HPLC”). The amount of aceclidine in each solution was calculated by the area under the principal peak compared to a reference solution of aceclidine. Samples were then subject to storage for 3 months. Aceclidine measurements were taken at 1, 2 and 3 months.

[6] = Aceclidine total related substances after storage with or without Mylar lined pouches (Example 18); type: physicochemical
Protocol: Aceclidine total related substances was recorded at 1, 2, 3 and 6 months.
Mylar® was used as the source of biaxially-oriented polyethylene terephthalate. Mylar is a registered trademark of and available from DuPont Teijin Films US Limited.

[7] = Aceclidine potency following storage (Example 19); type: physicochemical
[8] = system: emmetrope over the age of 45; test: Effects of pilocarpine and aceclidine with or without tropicamide and carrier on near and distance vision (FIG. 1); type: in vivo, human
Excerpt: Subject is an emmetrope over the age of 45 with a baseline near vision of 20.100 and baseline distance vision of 20.20. Topical administration to the eye of 1% w/v pilocarpine in saline solution results in an improvement of near vision to 20.40 (8a), however this improvement comes at the expense of a reduction in distance vision to 20.100 (8b). […] A proper drug carrier can also have a beneficial effect.

[9] = aceclidine 1.1% w/v + 0.125% w/v tropicamide, subjects 4 and 5
[10] = aceclidine 1.5% w/v in HPβCD/CMC/NaCl/BAK, one line per subject
[11] = Pouched (5 C.), first listing (r9)
[12] = Pouched (5 C.), second listing (r12)
[13] = Pouched (25 C.), first listing (r10)
[14] = Pouched (25 C.), second listing (r13)
[15] = Pouched (5 C.), first group (initial 99.70%)
[16] = Pouched (5 C.), second group (initial 99.60%)
[17] = Pouched (25 C.), first group (initial 99.70%)
[18] = Pouched (25 C.), second group (initial 99.60%)

Poloxamer 407
Redness 1 hr (eye [1]): 1
Stinging (eye [1]): 0.5

Poloxamer 188
Redness 1 hr (eye [1]): 0.25-
Stinging (eye [1]): 0-2

Polysorbate 80
Redness 1 hr (eye [1]): 0.5
Stinging (eye [1]): 0.25

CC[C@@H]1C(=O)OC[C@@H]1Cc1cncn1C [pilocarpine]
distance blur (eye [2]; pilocarpine instilled monocularly): 2-3 lines
pupil size (eye [2]; upon instillation of 1.0% pilocarpine, or larger in most subjects): ≥ 2.3 mm

Brc1c(NC2=NCCN2)ccc2nccnc12 [brimonidine]
rebound redness, patients (eye [3]; brimonidine 0.20% w/v (Alphagan®) twice daily): 25%
tachyphylaxis of pupil modulation, treated subjects (eye [3]; brimonidine 0.20% w/v topically for night vision, within four weeks of use, almost): ~100%

Polyoxyl 35 castor oil
Redness 1 hr (eye [1]): 0.25
Stinging (eye [1]): 0

Tyloxapol
Redness 1 hr (eye [1]): 0.25-
Stinging (eye [1]): 0-2

CC(=O)OC1CN2CCC1CC2 (stereo not drawn) [Aceclidine, aceclidine]
Effect (presbyopic subjects; [9]): 7.00 h and 12.00 h
Effect (presbyopic subjects; [10]): 8.00 h (4×) and 9.00 h
L Post Dist (presbyopic subjects; [9]): 20.20 and 20.15
L Post Dist (presbyopic subjects; [10]): 20.20 (2×) and 20.30 and 20.25 (2×)
L Post Near (presbyopic subjects; left eye near vision (15 inches), aceclidine 1.5% w/v in HPβCD/CMC/NaCl/BAK, one line per subject): 20.15 (3×) and 20.30 and 20.20
L Post Near (presbyopic subjects; left eye near vision, aceclidine 1.1% w/v + 0.125% w/v tropicamide, subjects 4 and 5): 20.25 and 20.15
R Post Dist (presbyopic subjects; aceclidine 1.1% w/v + 0.125% w/v tropicamide, same carrier, subjects 4 and 5): 20.20 and 20.15
R Post Dist (presbyopic subjects; [10]): 20.20 (3×) and 20.25 (2×)
R Post Near (presbyopic subjects; right eye near vision (15 inches), aceclidine 1.5% w/v in HPβCD/CMC/NaCl/BAK, one line per subject): 20.15 (3×) and 20.20 and 20.25
R Post Near (presbyopic subjects; right eye near vision, aceclidine 1.1% w/v + 0.125% w/v tropicamide, subjects 4 and 5): 20.25 and 20.20
corrected near and distance vision to 20.20 or better, duration (eye [4]; aceclidine 1.55% w/v): at least 6 hours
noticeable affect lasting (eye [4]; aceclidine 1.55% w/v): about 7.5 hours
size of the pupil (eye [4]; aceclidine 1.55% w/v, 30 minutes after topical instillation): about 1.63 mm
near vision improvement (eye [4]; aceclidine lowered to 1.25% w/v (not shown)): 20.25-20.30
Stability of Aceclidine, 1 month ([5]; 4° C., Example 10 composition): 93%
Stability of Aceclidine, 2 months ([5]; 4° C., Example 10 composition): 92%
Stability of Aceclidine, 3 months ([5]; 4° C., Example 10 composition): 88%
Stability of Aceclidine, Initial ([5]; 4° C., Example 10 composition): 100%
Stability of Aceclidine, 1 month ([5]; 25° C., Example 10 composition): 92%
Stability of Aceclidine, 2 months ([5]; 25° C., Example 10 composition): 75%
Stability of Aceclidine, 3 months ([5]; 25° C., Example 10 composition): 50%
Stability of Aceclidine, Initial ([5]; 25° C., aceclidine 1.50%, tropicamide 0.042%, polyoxyl 40 stearate 5.5%, mannitol 2.5%, citrate 3 mM, pH 4.75): 100%
Aceclidine Total Related Substances, One Month Result [6, 11]: 0.54%
Aceclidine Total Related Substances, Six Month Result [6, 11]: 0.47%
Aceclidine Total Related Substances, Three Month Result [6, 11]: 0.35%
Aceclidine Total Related Substances, Total % Change [6, 11]: 0.06%
Aceclidine Total Related Substances, One Month Result [6, 12]: 0.50%
Aceclidine Total Related Substances, Six Month Result [6, 12]: 0.00%
Aceclidine Total Related Substances, Three Month Result [6, 12]: 0.18%
Aceclidine Total Related Substances, Total % Change [6, 12]: −0.41%
Aceclidine Total Related Substances, One Month Result [6, 13]: 0.55%
Aceclidine Total Related Substances, Six Month Result [6, 13]: 0.36%
Aceclidine Total Related Substances, Three Month Result [6, 13]: 1.26%
Aceclidine Total Related Substances, Total % Change [6, 13]: −0.05% and 0.05%
Aceclidine Total Related Substances, One Month Result [6, 14]: 0.74%
Aceclidine Total Related Substances, Six Month Result [6, 14]: 0.00%
Aceclidine Total Related Substances, Three Month Result [6, 14]: 0.31%
Aceclidine Total Related Substances, Total % Change [6, 14]: −0.41%
Aceclidine Total Related Substances, One Month Result ([6]; Pouched (−20 C.)): 0.74%
Aceclidine Total Related Substances, Six Month Result ([6]; Pouched (−20 C.)): 0.00%
Aceclidine Total Related Substances, Three Month Result ([6]; Pouched (−20 C.)): 0.25%
Aceclidine Total Related Substances, Total % Change ([6]; Pouched (−20 C.)): −0.41%
Aceclidine Total Related Substances, One Month Result ([6]; Unpouched (5 C.)): 0.55%
Aceclidine Total Related Substances, Six Month Result ([6]; Unpouched (5 C.)): 0.49%
Aceclidine Total Related Substances, Three Month Result ([6]; Unpouched (5 C.)): 0.05%
Aceclidine Total Related Substances, Total % Change ([6]; Unpouched (5 C.)): 0.08%
Aceclidine Total Related Substances, Two Month Result ([6]; Unpouched (5 C.)): 0.51%
Aceclidine Total Related Substances, Initial Result ([6]; Unpouched (5 C.) line, initial): 0.41%
Aceclidine Total Related Substances, One Month Result ([6]; Unpouched (25 C.)): 0.58%
Aceclidine Total Related Substances, Six Month Result ([6]; Unpouched (25 C.)): 4.87%
Aceclidine Total Related Substances, Three Month Result ([6]; Unpouched (25 C.)): 1.39%
Aceclidine Total Related Substances, Total % Change ([6]; Unpouched (25 C.)): 4.46%
Aceclidine Total Related Substances, Two Month Result ([6]; Unpouched (25 C.)): 1.45%
Aceclidine Potency, One Month Result [7, 15]: 100.0%
Aceclidine Potency, Six Month Result [7, 15]: 100.8%
Aceclidine Potency, Three Month Result [7, 15]: 99.7%
Percent Change Between Initial and Six Month Results [7, 15]: 1.1%
Aceclidine Potency, One Month Result [7, 16]: 99.5%
Aceclidine Potency, Six Month Result [7, 16]: 102.2%
Aceclidine Potency, Three Month Result [7, 16]: 102.3%
Percent Change Between Initial and Six Month Results [7, 16]: 2.6%
Aceclidine Potency, One Month Result [7, 17]: 98.4%
Aceclidine Potency, Six Month Result [7, 17]: 94.9%
Aceclidine Potency, Three Month Result [7, 17]: 97.5%
Percent Change Between Initial and Six Month Results [7, 17]: −4.8%
Aceclidine Potency, One Month Result [7, 18]: 103.0%
Aceclidine Potency, Six Month Result [7, 18]: 96.0%
Aceclidine Potency, Three Month Result [7, 18]: 99.0%
Percent Change Between Initial and Six Month Results [7, 18]: 3.6%
Aceclidine Potency, One Month Result ([7]; Pouched (−25 C.)): 98.5%
Aceclidine Potency, Six Month Result ([7]; Pouched (−25 C.)): 103.1%
Aceclidine Potency, Three Month Result ([7]; Pouched (−25 C.)): 101.4%
Percent Change Between Initial and Six Month Results ([7]; Pouched (−25 C.)): 3.5%
Aceclidine Potency, Initial Result ([7]; Pouched (−25 C.) line, initial of second group): 99.60%
Aceclidine Potency, One Month Result ([7]; Unpouched (5 C.)): 99.3%
Aceclidine Potency, Six Month Result ([7]; Unpouched (5 C.)): 100.5%
Aceclidine Potency, Three Month Result ([7]; Unpouched (5 C.)): 100.0%
Aceclidine Potency, Two Month Result ([7]; Unpouched (5 C.)): 102.0%
Percent Change Between Initial and Six Month Results ([7]; Unpouched (5 C.)): 0.8%
Aceclidine Potency, Initial Result ([7]; Unpouched (5 C.) line, initial of first group): 99.70%
Aceclidine Potency, One Month Result ([7]; Unpouched (25 C.)): 98.2%
Aceclidine Potency, Six Month Result ([7]; Unpouched (25 C.)): 97.7%
Aceclidine Potency, Three Month Result ([7]; Unpouched (25 C.)): 98.2%
Aceclidine Potency, Two Month Result ([7]; Unpouched (25 C.)): 101.9%
Percent Change Between Initial and Six Month Results ([7]; Unpouched (25 C.)): −2.0%
extended time period of near vision improvement ([8]; 1.55% w/v aceclidine in saline solution): 6 h
distance vision ([8]; 1.55% w/v aceclidine in saline solution, baseline 20.20): without any effect on the baseline distance vision
near vision ([8]; 1.55% w/v aceclidine in saline solution, baseline near 20.100): 20.40
near vision ([8]; aceclidine + 0.042% w/v tropicamide in the carrier): 20.15
near vision ([8]; aceclidine in carrier (5.5% HPβCD, 0.75% CMC, 0.25% NaCl, 0.01% BAK), better than): > 20.20
anterior chamber shallowing (eye [2]; aceclidine with further inclusion of a cycloplegic agent): 0.04 mm
